# Experimental data taken from PubChem BioAssay (NCI).
#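 Abbreviation: GI50, concentration required for 50% inhibition of growth. The concentration for full growth arrest is given as TGI.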
# Columns and labels:
# Assay in all cases: DTP human tumour cell line panel, 384-well format
# SNB-19 CNS = tested on: SNB-19 CNS
# UACC-257 melanoma = tested on: UACC-257 melanoma
# M14 melanoma = tested on: M14 melanoma
# MCF7 breast = tested on: MCF7 breast
# HOP-92 NSCLC = tested on: HOP-92 NSCLC
# COLO 205 colon = tested on: COLO 205 colon
# K-562 leukemia = tested on: K-562 leukemia
# OVCAR-8 ovarian = tested on: OVCAR-8 ovarian
# OVCAR-5 ovarian = tested on: OVCAR-5 ovarian
# HCT-116 colon = tested on: HCT-116 colon
# CCRF-CEM leukemia = tested on: CCRF-CEM leukemia
# A498 renal = tested on: A498 renal
# HS 578T breast = tested on: HS 578T breast
# MDA-MB-468 breast = tested on: MDA-MB-468 breast
# HT29 colon = tested on: HT29 colon
# DU-145 prostate = tested on: DU-145 prostate
# HL-60(TB) leukemia = tested on: HL-60(TB) leukemia
# CAKI-1 renal = tested on: CAKI-1 renal
# NCI-H226 lung = tested on: NCI-H226 lung
# NCI-H460 NSCLC = tested on: NCI-H460 NSCLC
# SF-295 CNS = tested on: SF-295 CNS
# NCI-H23 lung = tested on: NCI-H23 lung
# BT-549 breast = tested on: BT-549 breast
# T-47D breast = tested on: T-47D breast
# MALME-3M melanoma = tested on: MALME-3M melanoma
# EKVX NSCLC = tested on: EKVX NSCLC
# HOP-62 NSCLC = tested on: HOP-62 NSCLC
# SK-MEL-5 melanoma = tested on: SK-MEL-5 melanoma
# NCI/ADR-RES ovarian = tested on: NCI/ADR-RES ovarian
# ACHN renal = tested on: ACHN renal
# SF-268 CNS = tested on: SF-268 CNS
# IGROV1 ovarian = tested on: IGROV1 ovarian
# SNB-75 CNS = tested on: SNB-75 CNS
# A549 NSCLC = tested on: A549 NSCLC
# MOLT-4 leukemia = tested on: MOLT-4 leukemia
# SF-539 CNS = tested on: SF-539 CNS
# RPMI-8226 leukemia = tested on: RPMI-8226 leukemia
# HCC-2998 colon = tested on: HCC-2998 colon
# TK-10 renal = tested on: TK-10 renal
# SR leukemia = tested on: SR leukemia
# HCT-15 colon = tested on: HCT-15 colon
# SK-MEL-28 melanoma = tested on: SK-MEL-28 melanoma
# SN12C renal = tested on: SN12C renal
# UACC-62 melanoma = tested on: UACC-62 melanoma
# RXF 393 renal = tested on: RXF 393 renal
# U251 glioblastoma = tested on: U251 glioblastoma
# MDA-MB-435 melanoma = tested on: MDA-MB-435 melanoma
structure (smiles),measurement,setting,value
Cc1cc(Nc2cc(N)ncn2)c(=O)n2c1C(=O)NC21CCCCC1,GI50,SNB-19 CNS,> 100 µM
same,TGI,SNB-19 CNS,> 100 µM
same,GI50,UACC-257 melanoma,> 100 µM
same,TGI,UACC-257 melanoma,> 100 µM
same,GI50,M14 melanoma,> 100 µM
same,TGI,M14 melanoma,> 100 µM
same,GI50,MCF7 breast,> 100 µM
same,TGI,MCF7 breast,> 100 µM
same,GI50,HOP-92 NSCLC,> 23.2 µM
same,TGI,HOP-92 NSCLC,> 100 µM
same,GI50,COLO 205 colon,> 100 µM
same,TGI,COLO 205 colon,> 100 µM
same,GI50,K-562 leukemia,> 100 µM
same,TGI,K-562 leukemia,> 100 µM
same,GI50,OVCAR-8 ovarian,> 100 µM
same,TGI,OVCAR-8 ovarian,> 100 µM
same,GI50,OVCAR-5 ovarian,> 100 µM
same,TGI,OVCAR-5 ovarian,> 100 µM
same,GI50,HCT-116 colon,> 100 µM
same,TGI,HCT-116 colon,> 100 µM
same,GI50,CCRF-CEM leukemia,> 100 µM
same,TGI,CCRF-CEM leukemia,> 100 µM
same,GI50,A498 renal,> 100 µM
same,TGI,A498 renal,> 100 µM
same,GI50,HS 578T breast,> 100 µM
same,TGI,HS 578T breast,> 100 µM
same,GI50,MDA-MB-468 breast,> 100 µM
same,TGI,MDA-MB-468 breast,> 100 µM
same,GI50,HT29 colon,> 100 µM
same,TGI,HT29 colon,> 100 µM
same,GI50,DU-145 prostate,> 100 µM
same,TGI,DU-145 prostate,> 100 µM
same,GI50,HL-60(TB) leukemia,> 100 µM
same,TGI,HL-60(TB) leukemia,> 100 µM
same,GI50,CAKI-1 renal,> 100 µM
same,TGI,CAKI-1 renal,> 100 µM
same,GI50,NCI-H226 lung,> 100 µM
same,TGI,NCI-H226 lung,> 100 µM
same,GI50,NCI-H460 NSCLC,> 100 µM
same,TGI,NCI-H460 NSCLC,> 100 µM
same,GI50,SF-295 CNS,> 100 µM
same,TGI,SF-295 CNS,> 100 µM
same,GI50,NCI-H23 lung,> 100 µM
same,TGI,NCI-H23 lung,> 100 µM
same,GI50,BT-549 breast,> 76.9 µM
same,TGI,BT-549 breast,> 100 µM
same,GI50,T-47D breast,> 100 µM
same,TGI,T-47D breast,> 100 µM
same,GI50,MALME-3M melanoma,> 100 µM
same,TGI,MALME-3M melanoma,> 100 µM
same,GI50,EKVX NSCLC,> 100 µM
same,TGI,EKVX NSCLC,> 100 µM
same,GI50,HOP-62 NSCLC,> 100 µM
same,TGI,HOP-62 NSCLC,> 100 µM
same,GI50,SK-MEL-5 melanoma,> 100 µM
same,TGI,SK-MEL-5 melanoma,> 100 µM
same,GI50,NCI/ADR-RES ovarian,> 100 µM
same,TGI,NCI/ADR-RES ovarian,> 100 µM
same,GI50,ACHN renal,> 100 µM
same,TGI,ACHN renal,> 100 µM
same,GI50,SF-268 CNS,> 100 µM
same,TGI,SF-268 CNS,> 100 µM
same,GI50,IGROV1 ovarian,> 100 µM
same,TGI,IGROV1 ovarian,> 100 µM
same,GI50,SNB-75 CNS,> 100 µM
same,TGI,SNB-75 CNS,> 100 µM
same,GI50,A549 NSCLC,> 100 µM
same,TGI,A549 NSCLC,> 100 µM
same,GI50,MOLT-4 leukemia,> 100 µM
same,TGI,MOLT-4 leukemia,> 100 µM
same,GI50,SF-539 CNS,> 100 µM
same,TGI,SF-539 CNS,> 100 µM
same,GI50,RPMI-8226 leukemia,> 62.6 µM
same,TGI,RPMI-8226 leukemia,> 100 µM
same,GI50,HCC-2998 colon,> 100 µM
same,TGI,HCC-2998 colon,> 100 µM
same,GI50,TK-10 renal,> 100 µM
same,TGI,TK-10 renal,> 100 µM
same,GI50,SR leukemia,> 69.7 µM
same,TGI,SR leukemia,> 100 µM
same,GI50,HCT-15 colon,> 100 µM
same,TGI,HCT-15 colon,> 100 µM
same,GI50,SK-MEL-28 melanoma,> 100 µM
same,TGI,SK-MEL-28 melanoma,> 100 µM
same,GI50,SN12C renal,> 100 µM
same,TGI,SN12C renal,> 100 µM
same,GI50,UACC-62 melanoma,> 100 µM
same,TGI,UACC-62 melanoma,> 100 µM
same,GI50,RXF 393 renal,> 100 µM
same,TGI,RXF 393 renal,> 100 µM
same,GI50,U251 glioblastoma,> 100 µM
same,TGI,U251 glioblastoma,> 100 µM
same,GI50,MDA-MB-435 melanoma,> 100 µM
same,TGI,MDA-MB-435 melanoma,> 100 µM
